From publication PMC6361926, “A chemical approach for global protein knockdown from mice to non-human primates” (Cell Discovery, 2019) come the findings set out here.

The assay has as its target Bruton's tyrosine kinase (BTK) (Mus musculus, UniProt P35991). Description: PROTAC degradation of BTK in mouse tissues in vivo, immunoblot. Type of assay: cell-based. Background: In western blotting, separated proteins are transferred to a membrane and probed.

Sequence of Bruton's tyrosine kinase (BTK) (P35991 2-659): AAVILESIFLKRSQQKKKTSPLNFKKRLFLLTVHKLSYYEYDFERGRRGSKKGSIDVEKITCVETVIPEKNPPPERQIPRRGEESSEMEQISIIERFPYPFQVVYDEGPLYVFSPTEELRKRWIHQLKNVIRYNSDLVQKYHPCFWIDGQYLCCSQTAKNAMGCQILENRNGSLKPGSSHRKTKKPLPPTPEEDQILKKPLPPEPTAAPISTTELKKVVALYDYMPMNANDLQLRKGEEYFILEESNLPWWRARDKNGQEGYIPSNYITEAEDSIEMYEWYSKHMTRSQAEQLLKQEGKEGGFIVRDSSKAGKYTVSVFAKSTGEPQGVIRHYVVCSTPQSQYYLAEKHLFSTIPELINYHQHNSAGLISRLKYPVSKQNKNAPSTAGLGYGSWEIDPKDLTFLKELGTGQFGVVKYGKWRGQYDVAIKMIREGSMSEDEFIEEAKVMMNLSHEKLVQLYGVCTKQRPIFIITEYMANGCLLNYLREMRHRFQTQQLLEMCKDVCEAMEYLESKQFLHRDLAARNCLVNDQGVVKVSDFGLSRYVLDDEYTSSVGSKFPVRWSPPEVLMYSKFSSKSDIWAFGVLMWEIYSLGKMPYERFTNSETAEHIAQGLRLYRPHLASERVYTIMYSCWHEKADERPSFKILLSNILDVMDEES

In the case of `Nc1ncnc2c1c(-c1ccc(Oc3ccccc3)cc1)nn2[C@@H]1CCCN(C(=O)CCCc2cn(CCOCCOCCNc3cccc4c3C(=O)N(C3CCC(=O)NC3=O)C4=O)nn2)C1` (stereo partly shown) [P13IS], the “PROTAC degradation of BTK in mouse tissues in vivo, immunoblot” value is “BTK in adipose, thymus, abdominal lymph node, and axillary lymph node was degraded efficiently”.
